{"source": "patent US8058270B2", "about": "“Dihydropteridinones for the treatment of cancer diseases” (Boehringer Ingelheim International GmbH, priority 2004, dated 2011)", "test_in_all_cases": "Alamar Blue cytotoxicity assay", "assay_type_in_all_cases": "cell-based", "key": {"A431": {"tested_on": "A431", "conditions": "Homo sapiens, A-431; A431 (Vulva), 72 h", "description": "(§1) Alamar Blue™ Cytotoxicity Assays\n(§2) The Alamar Blue™ assay is designed to measure quantitatively the proliferation of cells by incorporating a fluorometric/colorimetric growth indicator based on the detection of metabolic activity.\n(§3) Cell culture: The various human tumor cell lines can be purchased from American Type Culture Collection (ATCC) or the German Collection of Microorganisms and Cell Cultures (DSMZ) and cultivated in 75 to 175 cm^2 tissue culture flasks in the medium indicated by the supplier. The cells are maintained at 37° C. and 5% CO2 in a humidified atmosphere, with an appropriate split ratio. Logarithmically growing cells are used for the assays.\n(§4) Assay conditions: On day one of the experiment 1000-4000 cells (in 100 μl medium) are seeded into each well of a sterile 96-well plate. The number of cells used is dependent on the growth rate and size of the cells. Eight wells on each plate are left free to accommodate for controls (4 wells for medium plus reduced AlamarBlue™, and 4 wells for medium plus oxidized AlamarBlue™). The plates are kept in the incubator overnight. On day two of the experiment serial dilutions of the inhibitor are prepared in medium containing 0.1% DMSO. Typical concentrations used are 10, 3, 1, 0.3, 0.1, 0.03, 0.01, 0.003 and 0.001 μM. 100 μl of the dilution (2× concentrate) is added to each well to yield a final volume of 200 μl per well. As controls plain medium and medium containing 0.1% DMSO are added to the designated wells. All data points are done in quadruplicates. The cells are then incubated for 72 h. After this incubation period 20 μl of AlamarBlue™ is added to each well. As a control, 20 μl of reduced AlamarBlue™ (AlamarBlue™ autoclaved for 30 min) is added to 4 wells without cells, and 20 μl of AlamarBlue™ is added to the remaining 4 wells without cells. After 4-5 h of incubation, the plates are measured in a fluorescence spectrophotometer (excitation 530 nm, emission 590 nm, slits 15, integrate time 0.1).\n(§5) Data analysis: For calculation the mean value from the quadruplicates is taken and the background is subtracted. The 0.1% DMSO value (the mean obtained from 8 wells with cells in medium with 0.1% DMSO but no compound) is taken as 100% control. The data is fitted by iterative calculations using a sigmoidal curve analysis program (Graph Pad Prism version 3.03) with variable Hill slope."}, "A549": {"tested_on": "A549", "conditions": "Homo sapiens; A549 (Lung), 72 h", "description": "as §1, §2, §3, §4, §5"}, "BRO": {"tested_on": "BRO", "conditions": "Homo sapiens; BRO (Melanoma), 72 h", "description": "as §1, §2, §3, §4, §5"}, "BxPC-3": {"tested_on": "BxPC-3", "conditions": "Homo sapiens; BxPC-3 (Pancreas), 72 h", "description": "as §1, §2, §3, §4, §5"}, "Colo 205": {"tested_on": "Colo 205", "conditions": "Homo sapiens; Colo 205 (Colon), 72 h", "description": "as §1, §2, §3, §4, §5"}, "DU145": {"tested_on": "DU145", "conditions": "Homo sapiens, DU-145; DU145 (Prostate), 72 h", "description": "as §1, §2, §3, §4, §5"}, "FaDu": {"tested_on": "FaDu", "conditions": "Homo sapiens; FaDu (Head and Neck), 72 h", "description": "as §1, §2, §3, §4, §5"}, "GRANTA-519": {"tested_on": "GRANTA-519", "conditions": "Homo sapiens; GRANTA-519 (Lymphoma), 72 h", "description": "as §1, §2, §3, §4, §5"}, "H4": {"tested_on": "H4", "conditions": "Homo sapiens; H4 (Brain), 72 h", "description": "as §1, §2, §3, §4, §5"}, "HCT116": {"tested_on": "HCT116", "conditions": "Homo sapiens, HCT-116; HCT116 (Colon), 72 h", "description": "as §1, §2, §3, §4, §5"}, "HL-60": {"tested_on": "HL-60", "conditions": "Homo sapiens; HL-60 (Leukemia), 72 h", "description": "as §1, §2, §3, §4, §5"}, "HT29": {"tested_on": "HT29", "conditions": "Homo sapiens, HT-29; HT29 (Colon), 72 h", "description": "as §1, §2, §3, §4, §5"}, "HeLa S3": {"tested_on": "HeLa S3", "conditions": "Homo sapiens; HeLa S3 (Cervix), 72 h", "description": "as §1, §2, §3, §4, §5"}, "HepG2": {"tested_on": "HepG2", "conditions": "Homo sapiens; HepG2 (Liver), 72 h", "description": "as §1, §2, §3, §4, §5"}, "MCF7": {"tested_on": "MCF7", "conditions": "Homo sapiens; MCF7 (Breast), 72 h", "description": "as §1, §2, §3, §4, §5"}, "MDA-MB-435S": {"tested_on": "MDA-MB-435S", "conditions": "Homo sapiens; MDA-MB-435S (Breast), 72 h", "description": "as §1, §2, §3, §4, §5"}, "MES-SA": {"tested_on": "MES-SA", "conditions": "Homo sapiens; MES-SA (Uterus), 72 h", "description": "as §1, §2, §3, §4, §5"}, "Mia CaPa-2": {"tested_on": "Mia CaPa-2", "conditions": "Homo sapiens; Mia CaPa-2 (Pancreas), 72 h", "description": "as §1, §2, §3, §4, §5"}, "NCI-H460": {"tested_on": "NCI-H460", "conditions": "Homo sapiens; NCI-H460 (Lung), 72 h", "description": "as §1, §2, §3, §4, §5"}, "NCI-H520": {"tested_on": "NCI-H520", "conditions": "Homo sapiens; NCI-H520 (Lung), 72 h", "description": "as §1, §2, §3, §4, §5"}, "NCI-N87": {"tested_on": "NCI-N87", "conditions": "Homo sapiens; NCI-N87 (Stomach), 72 h", "description": "as §1, §2, §3, §4, §5"}, "PC-3": {"tested_on": "PC-3", "conditions": "Homo sapiens; PC-3 (Prostate), 72 h", "description": "as §1, §2, §3, §4, §5"}, "Raji": {"tested_on": "Raji", "conditions": "Homo sapiens; Raji (Lymphoma), 72 h", "description": "as §1, §2, §3, §4, §5"}, "SK-UT-1B": {"tested_on": "SK-UT-1B", "conditions": "Homo sapiens, Skut1B; SK-UT-1B (Uterus), 72 h", "description": "as §1, §2, §3, §4, §5"}, "SKOV-3": {"tested_on": "SKOV-3", "conditions": "Homo sapiens, SK-OV-3; SKOV-3 (Ovary), 72 h", "description": "as §1, §2, §3, §4, §5"}, "Saos-2": {"tested_on": "Saos-2", "conditions": "Homo sapiens; Saos-2 (Bone), 72 h", "description": "as §1, §2, §3, §4, §5"}, "THP-1": {"tested_on": "THP-1", "conditions": "Homo sapiens; THP-1 (Leukemia), 72 h", "description": "as §1, §2, §3, §4, §5"}}, "note": "pEC50: −log10 of the molar value."}
{"smiles": "CC[C@@H]1C(=O)N(C)c2cnc(Nc3ccc(C(=O)NC4CCN(C)CC4)cc3OC)nc2N1C1CCCC1", "note": "[4-[[(7R)-8-cyclopentyl-7-ethyl-5,6,7,8-tetrahydro-5-methyl-6-oxo-2-pteridinyl]amino]-3-methoxy-N-(1-methyl-4-piperidinyl)-benzamide]", "values": [{"measurement": "pEC50", "setting": "A431", "result": 8.70}, {"measurement": "pEC50", "setting": "A549", "result": 8.22}, {"measurement": "pEC50", "setting": "BRO", "result": 8.40}, {"measurement": "pEC50", "setting": "BxPC-3", "result": 7.60}, {"measurement": "pEC50", "setting": "Colo 205", "result": 8.05}, {"measurement": "pEC50", "setting": "DU145", "result": 8.22}, {"measurement": "pEC50", "setting": "FaDu", "result": 8.22}, {"measurement": "pEC50", "setting": "GRANTA-519", "result": 8.30}, {"measurement": "pEC50", "setting": "H4", "result": 7.66}, {"measurement": "pEC50", "setting": "HCT116", "result": 8.05}, {"measurement": "pEC50", "setting": "HL-60", "result": 7.85}, {"measurement": "pEC50", "setting": "HT29", "result": 8.40}, {"measurement": "pEC50", "setting": "HeLa S3", "result": 7.92}, {"measurement": "pEC50", "setting": "HepG2", "result": 8.00}, {"measurement": "pEC50", "setting": "MCF7", "result": 8.05}, {"measurement": "pEC50", "setting": "MDA-MB-435S", "result": 7.77}, {"measurement": "pEC50", "setting": "MES-SA", "result": 8.00}, {"measurement": "pEC50", "setting": "Mia CaPa-2", "result": 8.15}, {"measurement": "pEC50", "setting": "NCI-H460", "result": 7.85}, {"measurement": "pEC50", "setting": "NCI-H520", "result": 8.00}, {"measurement": "pEC50", "setting": "NCI-N87", "result": 7.85}, {"measurement": "pEC50", "setting": "PC-3", "result": 8.15}, {"measurement": "pEC50", "setting": "Raji", "result": 7.85}, {"measurement": "pEC50", "setting": "SK-UT-1B", "result": 8.10}, {"measurement": "pEC50", "setting": "SKOV-3", "result": 8.40}, {"measurement": "pEC50", "setting": "Saos-2", "result": 8.10}, {"measurement": "pEC50", "setting": "THP-1", "result": 8.05}]}
